The record followed here is EP3656762A1, “COMPOUNDS FOR THE TREATMENT OF NF-KB-RELATED DISEASES OR DISORDERS” (Instituto Biomar S.A., priority 2018, dated 2020).

This assay relates to Experimental Autoimmune Encephalomyelitis (EAE). Particulars: MOG35-55 induced EAE; i.p. daily from day 0; Compound 1 3 mg/kg, Cyclosporine A 10 mg/kg; score 0-8; mean ± SEM.

For Cyclosporine A, the “MaxES (Maximum EAE score)” value worked out at 3.0±0.1.
